Data on 21 compounds can be found in patent publication US20260297080A1, “BICYCLIC COMPOUNDS AS CDK INHIBITORS” (BeOne Medicines I GmbH, priority 2022, published 2026).

In general, IC50 refers to the concentration that inhibits the measured activity by half. Low values mean greater potency, high ones weaker potency.

The target in one assay is CDK2/Cyclin E1 (Homo sapiens, UniProt P24941). Put plainly: CDK2/Cyclin E1 Biochemical Assay (TR-FRET), 0.060 mM ATP. The following applies: 0.15 μM Rb (Ser780)-biotin substrate, pH7.0, 60 min preincubation, 120 min reaction, room temperature. Here is the method: (§1) CDK2/Cyclin E1 and CDK1/Cyclin B1 Biochemical Assays
(§2) Compounds disclosed herein were tested for inhibition of CDK2/Cyclin E1 or CDK1/Cyclin B1 kinase in an assay based on the time-resolved fluorescence-resonance energy transfer (TR-FRET) methodology. The assay was carried out in 384-well low volume black plates in a reaction mixture containing CDK2/Cyclin E1 or CDK1/Cyclin B1, 0.060 mM ATP for CDK2/Cyclin E1 or 0.015 mM ATP for CDK1/Cyclin B1, 0.15 μM Rb (Ser780)-biotin substrate and 0-10 μM compound in buffer containing 50 mM HEPES pH7.0, 0.02% NaN3, 0.01% BSA, 0.1 mM Orthovanadate, 50 mM MgCl2, 1 mM DTT and 0.005% Tween-20. The kinase was incubated with compound for 60 minutes at room temperature and the reaction was initiated by the addition of ATP and Rb (Ser780)-biotin substrate. After reaction at room temperature for 120 minutes, an equal volume of stop/detection solution was added according to the manufacture's instruction (Cisbio Bioassays). The stop/detection solution contained Streptavidin-XL665 and Anti-pRb (Ser780) mAb-Eu Cryptate in Detection buffer (Cisbio Bioassays). Plates were incubated at room temperature for 60 minutes, and the TR-FRET signals (ex337 nm, em665 nm/620 nm) were recorded on a PHERAstar FSX plate reader (BMG Labtech). The inhibition percentage of CDK2/Cyclin E1 or CDK1/Cyclin B1 kinase activity in presence of increasing concentrations of compounds was calculated based on the ratio of fluorescence at 665 nm to that at 620 nm. The IC50 for each compound was derived from fitting the data to the four-parameter logistic equation by Dotmatics.

In the next assay the target is CDK1/Cyclin B1 (Homo sapiens, UniProt P06493). Put plainly: CDK1/Cyclin B1 Biochemical Assay (TR-FRET), 0.015 mM ATP. The following applies: 0.15 μM Rb (Ser780)-biotin substrate, pH7.0, 60 min preincubation, 120 min reaction, room temperature. Here is the method: as §1, §2
(In TR-FRET formats the signal depends on donor and acceptor labels being close together.)

Sequence of CDK1/Cyclin B1 (P06493 whole entry): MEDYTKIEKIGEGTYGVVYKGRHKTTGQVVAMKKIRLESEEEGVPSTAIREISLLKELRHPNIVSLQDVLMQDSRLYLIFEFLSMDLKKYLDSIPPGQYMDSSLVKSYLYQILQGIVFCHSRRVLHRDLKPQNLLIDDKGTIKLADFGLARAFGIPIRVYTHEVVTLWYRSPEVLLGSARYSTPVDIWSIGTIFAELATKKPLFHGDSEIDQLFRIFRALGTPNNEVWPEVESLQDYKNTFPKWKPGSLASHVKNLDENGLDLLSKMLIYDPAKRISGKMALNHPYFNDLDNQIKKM
Sequence of CDK1/Cyclin B1 (P14635 whole entry partner): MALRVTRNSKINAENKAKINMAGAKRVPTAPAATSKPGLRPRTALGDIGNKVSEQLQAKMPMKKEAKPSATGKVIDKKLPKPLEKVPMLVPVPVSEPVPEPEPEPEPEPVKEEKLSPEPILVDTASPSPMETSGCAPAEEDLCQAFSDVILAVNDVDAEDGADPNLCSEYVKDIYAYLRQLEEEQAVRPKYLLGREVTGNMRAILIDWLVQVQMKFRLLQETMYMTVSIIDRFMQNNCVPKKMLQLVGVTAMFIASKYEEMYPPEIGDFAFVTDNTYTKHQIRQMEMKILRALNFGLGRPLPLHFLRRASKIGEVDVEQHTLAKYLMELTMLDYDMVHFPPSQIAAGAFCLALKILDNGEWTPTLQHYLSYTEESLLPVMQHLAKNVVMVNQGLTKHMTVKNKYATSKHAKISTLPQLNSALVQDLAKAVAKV

Take `CCN1Cc2c(ccc(Nc3cc([C@@H]4CC[C@H](OC(=O)NC(C)C)C4)[nH]n3)c2F)S1(=O)=O` (relative stereo) [Example 60, cis-3-(3-((2-ethyl-4-fluoro-1,1-dioxido-2,3-dihydrobenzo[d]isothiazol-5-yl)amino)-1H-pyrazol-5-yl)cyclopentyl isopropylcarbamate]: the IC50 against CDK2/Cyclin E1 is 9.2 nM; against CDK1/Cyclin B1, 497 nM.

With `O=C(NC1CCCC1)O[C@H]1CC[C@@H](c2cc(Nc3ccc4c(c3)CS(=O)(=O)N4)n[nH]2)C1` (single isomer, unassigned) [Example 381a, cis-3-(3-((2,2-dioxido-1,3-dihydrobenzo[c]isothiazol-5-yl)amino)-1H-pyrazol-5-yl)cyclopentyl cyclopentylcarbamate], the IC50 on CDK2/Cyclin E1 came out at 1.2 nM; against CDK1/Cyclin B1 it was 45 nM.

Turning to `CN1c2ccc(Nc3cc([C@@H]4CC[C@H](OC(=O)NCC(C)(C)O)C4)[nH]n3)cc2CS1(=O)=O` (relative stereo) [Example 238, cis-3-(3-((1-methyl-2,2-dioxido-1,3-dihydrobenzo[c]isothiazol-5-yl)amino)-1H-pyrazol-5-yl)cyclopentyl(2-hydroxy-2-methylpropyl)carbamate], the IC50 was determined as 16 nM on CDK2/Cyclin E1 and 153 nM on CDK1/Cyclin B1.

Consider `[2H]C([2H])([2H])N1c2c(F)cc(Nc3cc([C@@H]4CC[C@H](OC(=O)NC(C)C)C4)[nH]n3)cc2CS1(=O)=O` (single isomer, unassigned) [Example 289b, cis-3-(3-((7-fluoro-1-(methyl-d3)-2,2-dioxido-1,3-dihydrobenzo[c]isothiazol-5-yl)amino)-1H-pyrazol-5-yl)cyclopentyl isopropylcarbamate], for which the figures for the IC50 against CDK2/Cyclin E1 and on CDK1/Cyclin B1 were 12 nM and 116 nM, respectively.

With `COc1c(Nc2cc([C@@H]3CC[C@H](OC(=O)NC(C)C)C3)[nH]n2)ccc2c1S(=O)(=O)NC2` (relative stereo) [Example 180, cis-3-(3-((7-methoxy-1,1-dioxido-2,3-dihydrobenzo[d]isothiazol-6-yl)amino)-1H-pyrazol-5-yl)cyclopentyl isopropylcarbamate], the IC50 was determined as 2.9 nM against CDK2/Cyclin E1 and 102 nM against CDK1/Cyclin B1.

On to `CC(C)NC(=O)O[C@H]1CC[C@@H](c2cc(Nc3c(F)cc4c(c3F)CNS4(=O)=O)n[nH]2)C1` (relative stereo) [Example 30, cis-3-(3-((4,6-difluoro-1,1-dioxido-2,3-dihydrobenzo[d]isothiazol-5-yl)amino)-1H-pyrazol-5-yl)cyclopentyl isopropylcarbamate], for which the values for the IC50 against CDK2/Cyclin E1 and on CDK1/Cyclin B1 were 7.2 nM and 544 nM, respectively.

In the case of `CC[C@H](C)NC(=O)O[C@H]1CC[C@@H](c2cc(Nc3ccc4c(c3F)CN(C)S4(=O)=O)n[nH]2)C1` (single isomer, unassigned) [Example 123a], the IC50 against CDK2/Cyclin E1 is 5.2 nM; on CDK1/Cyclin B1, 613 nM.

Regarding `CCCNC(=O)O[C@H]1CC[C@@H](c2cc(Nc3ccc4c(c3Cl)CNS4(=O)=O)n[nH]2)C1` (single isomer, unassigned) [Example 39b, cis-3-(3-((4-chloro-1,1-dioxido-2,3-dihydrobenzo[d]isothiazol-5-yl)amino)-1H-pyrazol-5-yl)cyclopentyl propylcarbamate], the IC50 against CDK2/Cyclin E1 is 26 nM; on CDK1/Cyclin B1, 390 nM.

For `COCC(C)(C)NC(=O)O[C@H]1CC[C@@H](c2cc(Nc3ccc4c(c3)CS(=O)(=O)N4C)n[nH]2)C1` (relative stereo) [Example 369, cis-3-(3-((1-methyl-2,2-dioxido-1,3-dihydrobenzo[c]isothiazol-5-yl)amino)-1H-pyrazol-5-yl)cyclopentyl(1-methoxy-2-methylpropan-2-yl)carbamate], the IC50 at CDK2/Cyclin E1 is 0.7 nM; on CDK1/Cyclin B1, 13 nM.

Consider `COCCN1c2ccc(Nc3cc([C@@H]4CC[C@H](OC(=O)NC(C)C)C4)[nH]n3)cc2CS1(=O)=O` (relative stereo) [Example 204, cis-3-(3-((1-(2-methoxyethyl)-2,2-dioxido-1,3-dihydrobenzo[c]isothiazol-5-yl)amino)-1H-pyrazol-5-yl)cyclopentyl isopropylcarbamate], for which the figures for the IC50 against CDK2/Cyclin E1 and against CDK1/Cyclin B1 were 1.8 nM and 51 nM, respectively.

In the case of `Cc1cc2c(cc1Nc1cc([C@@H]3CC[C@H](OC(=O)NC(C)C)C3)[nH]n1)CNS2(=O)=O` (relative stereo) [Example 25, cis-3-(3-((6-methyl-1,1-dioxido-2,3-dihydrobenzo[d]isothiazol-5-yl)amino)-1H-pyrazol-5-yl)cyclopentyl isopropylcarbamate], the figures for the IC50 on CDK2/Cyclin E1 and on CDK1/Cyclin B1 were 11 nM and 271 nM, respectively.

For the compound `CN1c2ccc(Nc3cc([C@@H]4CC[C@H](OC(=O)NC5(C)CC5)C4)[nH]n3)c(F)c2CS1(=O)=O` (relative stereo) [Example 257, cis-3-(3-((4-fluoro-1-methyl-2,2-dioxido-1,3-dihydrobenzo[c]isothiazol-5-yl)amino)-1H-pyrazol-5-yl)cyclopentyl(1-methylcyclopropyl)carbamate], the IC50 at CDK2/Cyclin E1 turned out to be 1.5 nM; on CDK1/Cyclin B1, 33 nM.

As to `CC(C)NC(=O)O[C@H]1CC[C@@H](c2cc(Nc3ccc4c(c3F)C(F)(F)S(=O)(=O)N4)n[nH]2)C1` (relative stereo) [Example 356, cis-3-(3-((3,3,4-trifluoro-2,2-dioxido-1,3-dihydrobenzo[c]isothiazol-5-yl)amino)-1H-pyrazol-5-yl)cyclopentyl isopropylcarbamate], the IC50 is 164 nM against CDK2/Cyclin E1 and 1580 nM at CDK1/Cyclin B1.

With `CC(C)NC(=O)O[C@H]1CC[C@@H](c2cc(Nc3ccc4c(c3F)CS(=O)(=O)N4CC(F)(F)F)n[nH]2)C1` (single isomer, unassigned) [Example 263b, cis-3-(3-((4-fluoro-2,2-dioxido-1-(2,2,2-trifluoroethyl)-1,3-dihydrobenzo[c]isothiazol-5-yl)amino)-1H-pyrazol-5-yl)cyclopentyl isopropylcarbamate], the half-maximal inhibitory concentration (IC50) amounted to 5.1 nM at CDK2/Cyclin E1 and 91 nM on CDK1/Cyclin B1.

For `COCN1c2c(F)cc(Nc3cc([C@@H]4CC[C@H](OC(=O)NC(C)C)C4)[nH]n3)cc2CS1(=O)=O` (relative stereo) [Example 282, cis-3-(3-((7-fluoro-1-(methoxymethyl)-2,2-dioxido-1,3-dihydrobenzo[c]isothiazol-5-yl)amino)-1H-pyrazol-5-yl)cyclopentyl isopropylcarbamate], the values for the IC50 at CDK2/Cyclin E1 and on CDK1/Cyclin B1 were 7.7 nM and 141 nM, respectively.

Consider `CC(C)NC(=O)O[C@@H]1CC[C@H](c2cc(Nc3ccc4c(c3)NS(=O)(=O)C4)n[nH]2)C1` (stereo in doubt) [Example 303a, cis-3-(3-((2,2-dioxido-1,3-dihydrobenzo[c]isothiazol-6-yl)amino)-1H-pyrazol-5-yl)cyclopentyl isopropylcarbamate], for which the IC50 against CDK2/Cyclin E1 is 2.6 nM; against CDK1/Cyclin B1, 48 nM.

In the case of `CC(C)NC(=O)O[C@H]1CC[C@@H](c2cc(Nc3ccc4c(c3F)CN(C3CCNC(=O)C3)S4(=O)=O)n[nH]2)C1` (relative stereo) [Example 81, cis-3-(3-((4-fluoro-1,1-dioxido-2-(2-oxopiperidin-4-yl)-2,3-dihydrobenzo[d]isothiazol-5-yl)amino)-1H-pyrazol-5-yl)cyclopentyl isopropylcarbamate], the IC50 was determined as 7.2 nM at CDK2/Cyclin E1 and 537 nM at CDK1/Cyclin B1.

Consider `CN1c2ccc(Nc3cc([C@@H]4CC[C@H](OC(=O)NC5(C)CCOC5)C4)[nH]n3)c(F)c2CS1(=O)=O` (single isomer, unassigned) [Example 349b, cis-3-(3-((4-fluoro-1-methyl-2,2-dioxido-1,3-dihydrobenzo[c]isothiazol-5-yl)amino)-1H-pyrazol-5-yl)cyclopentyl(3-methyltetrahydrofuran-3-yl)carbamate], for which the figures for the IC50 at CDK2/Cyclin E1 and against CDK1/Cyclin B1 were 1.2 nM and 88 nM, respectively.

As to `CC(C)NC(=O)O[C@H]1CC[C@@H](c2cc(Nc3cc(F)c4c(c3)S(=O)(=O)NC4)n[nH]2)C1` (relative stereo) [Example 179, cis-3-(3-((4-fluoro-1,1-dioxido-2,3-dihydrobenzo[d]isothiazol-6-yl)amino)-1H-pyrazol-5-yl)cyclopentyl isopropylcarbamate], the results for the IC50 on CDK2/Cyclin E1 and at CDK1/Cyclin B1 were 0.3 nM and 5.5 nM, respectively.

With `CC(C)NC(=O)O[C@H]1CC[C@@H](c2cc(Nc3ccc4c(c3)S(=O)(=O)NC4C)[nH]n2)C1` (single isomer, unassigned) [Example 5c, cis-3-(5-((3-methyl-1,1-dioxido-2,3-dihydrobenzo[d]isothiazol-6-yl)amino)-1H-pyrazol-3-yl)cyclopentyl isopropylcarbamate], the values for the concentration for half-maximal inhibition (IC50) against CDK2/Cyclin E1 and against CDK1/Cyclin B1 were 4.2 nM and 95 nM, respectively.

`CC(C)NC(=O)O[C@H]1CC[C@@H](c2cc(Nc3ccc4c(c3F)CS(=O)(=O)C4)n[nH]2)C1` (relative stereo) [Example 317, cis-3-(3-((4-fluoro-2,2-dioxido-1,3-dihydrobenzo[c]thiophen-5-yl)amino)-1H-pyrazol-5-yl)cyclopentyl isopropylcarbamate] registered an IC50 against CDK1/Cyclin B1 of 18 nM.
